Experimental data: the CheMixHub drug solubility set

Experiment: xn = mol fraction of the nth substance listed, in the solute-free solvent

CC(C)C(=O)Nc1ccc([N+](=O)[O-])c(C(F)(F)F)c1 + C1CCOC1 + CC(C)O
solubility (g/100 g solution)
Conditions	278.15 K	283.15 K	288.15 K	293.15 K	298.15 K	303.15 K	308.15 K	313.15 K	318.15 K	323.15 K
x2 = 0.1	22.2	24.2	27	30.4	34.3	39	43.5	47.9	52	56.1
x2 = 0.2	31.7	33.5	35.9	38.8	42.4	46.1	49.8	53.3	56.9	61
x2 = 0.3	36.9	40.3	43.7	47	50.5	53.9	57.1	60.3	63.6	66.8
x2 = 0.4	40.4	43.2	46.4	50.1	53.3	56.9	60.1	63.1	65.9	68.8
x2 = 0.5	43.9	46.5	49.6	52.6	55.8	59.1	62.3	65.3	68.1	70.9
x2 = 0.6	47.4	49.7	52.6	55.8	58.7	61.9	64.7	67.6	70.2	73.3
x2 = 0.7	50.4	51.9	54.7	57.8	61.2	64.4	67.1	70	72.6	75.4
x2 = 0.8	52.5	54.5	57.4	60.7	63.7	66.4	69	71.8	74.2	77.1
x2 = 0.9	55.2	57.1	59.7	62.6	65.8	68.7	71.3	73.7	75.9	78.2

CC1=NNC(=O)N(N=Cc2cccnc2)C1 + C1COCCO1 + CC(C)O
solubility (g/100 g solution)
Conditions	288.15 K	293.15 K	298.15 K	303.15 K	308.15 K	313.15 K	318.15 K
x2 = 0.1457	0.106	0.125	0.147	0.169	0.197	0.227	0.261
x2 = 0.3126	0.11	0.127	0.149	0.173	0.2	0.229	0.263
x2 = 0.5057	0.113	0.132	0.154	0.176	0.202	0.233	0.268
x2 = 0.7318	0.116	0.135	0.156	0.179	0.206	0.235	0.27

CC(C)C(=O)Nc1ccc([N+](=O)[O-])c(C(F)(F)F)c1 + C1COCCO1 + O
solubility (g/100 g solution)
Conditions	283.15 K	288.15 K	293.15 K	298.15 K	303.15 K	308.15 K	313.15 K	318.15 K	323.15 K
x2 = 0.02222	0.00748	0.00971	0.0126	0.0163	0.0208	0.0262	0.033	0.0406	0.0498
x2 = 0.04865	0.0654	0.0845	0.108	0.135	0.17	0.212	0.26	0.316	0.382
x2 = 0.0806	0.391	0.472	0.574	0.691	0.832	0.993	1.17	1.38	1.63
x2 = 0.12	1.34	1.61	1.89	2.2	2.56	2.98	3.46	3.97	4.55
x2 = 0.1698	3.72	4.33	5.02	5.81	6.62	7.58	8.62	9.74	11
x2 = 0.2348	7.42	8.68	9.98	11.4	13	14.8	16.6	18.7	20.9
x2 = 0.3231	12.2	14.1	16.3	18.5	20.8	23.4	26.1	28.9	31.9
x2 = 0.45	18.1	20.6	23.5	26.6	29.8	33.3	36.7	40.4	44.1
x2 = 0.648	24.9	28	31.2	34.6	38.2	41.8	45.6	49.4	53.2

Nc1cccc2c1CN(C1CCC(=O)NC1=O)C2=O (centres undefined) + CC#N + CC(C)O
solubility (g/100 g solution)
Conditions	273.15 K	278.15 K	283.15 K	288.15 K	293.15 K	298.15 K	303.15 K	308.15 K	313.15 K	318.15 K
x2 = 0.2679	0.218	0.231	0.251	0.274	0.304	0.339	0.373	0.411	0.451	0.494
x2 = 0.4939	0.278	0.304	0.339	0.374	0.415	0.459	0.511	0.569	0.627	0.694
x2 = 0.6871	0.349	0.383	0.42	0.463	0.503	0.55	0.602	0.666	0.732	0.802
x2 = 0.8541	0.363	0.393	0.428	0.464	0.506	0.552	0.609	0.666	0.744	0.82

Nc1cccc2c1CN(C1CCC(=O)NC1=O)C2=O (centres undefined) + CC#N + CO
solubility (g/100 g solution)
Conditions	273.15 K	278.15 K	283.15 K	288.15 K	293.15 K	298.15 K	303.15 K	308.15 K	313.15 K	318.15 K
x2 = 0.1633	0.557	0.585	0.618	0.646	0.686	0.727	0.771	0.821	0.871	0.922
x2 = 0.3423	0.674	0.696	0.729	0.767	0.805	0.849	0.89	0.935	0.98	1.03
x2 = 0.5394	0.771	0.811	0.855	0.901	0.948	0.997	1.05	1.1	1.16	1.22
x2 = 0.7574	0.653	0.682	0.713	0.752	0.794	0.84	0.89	0.942	0.996	1.05

CC(C)C(=O)Nc1ccc([N+](=O)[O-])c(C(F)(F)F)c1 + CC#N + O
solubility (g/100 g solution)
Conditions	278.15 K	283.15 K	288.15 K	293.15 K	298.15 K	303.15 K	308.15 K	313.15 K	318.15 K	323.15 K
x2 = 0.04651	0.0051	0.007	0.00931	0.0126	0.0169	0.0223	0.0298	0.0389	0.0503	0.0645
x2 = 0.0989	0.0498	0.0667	0.0861	0.112	0.148	0.193	0.248	0.313	0.402	0.508
x2 = 0.1583	0.303	0.387	0.487	0.609	0.767	0.951	1.17	1.44	1.74	2.11
x2 = 0.2264	1.08	1.36	1.68	2.08	2.57	3.16	3.86	4.68	5.62	6.78
x2 = 0.3051	3.19	3.94	4.76	5.74	6.94	8.26	9.78	11.5	13.6	15.8
x2 = 0.397	6.71	8.14	9.68	11.6	13.8	16.2	19.1	22.2	25.3	28.7
x2 = 0.506	12.4	14.9	17.7	20.4	23.6	27.3	31.1	35.1	39.3	43.6
x2 = 0.6372	18.2	21.8	25.4	29.4	33.6	38	42.9	47.8	52.8	57.8
x2 = 0.798	24.1	28.7	33.3	38	43.2	48.7	54	59.6	64.5	69.8

CC(C)C(=O)Nc1ccc([N+](=O)[O-])c(C(F)(F)F)c1 + CC(C)=O + CC(C)O
solubility (g/100 g solution)
Conditions	278.15 K	283.15 K	288.15 K	293.15 K	298.15 K	303.15 K	308.15 K	313.15 K	318.15 K	323.15 K
x2 = 0.1	25.4	27.7	30.1	33.4	37.2	41	44.5	48.4	53.4	59
x2 = 0.2	31.8	34.1	37	40.1	44.1	48	52	55.4	58.7	61.9
x2 = 0.3	35.7	39	42	45.1	48.5	52.2	55.4	58.4	61.4	64.6
x2 = 0.4	38.8	42.4	45.5	48.8	52.2	55.7	59.1	62.2	65	68
x2 = 0.5	42.2	45.7	48.9	52.2	55.5	58.8	61.7	65	68.2	71.2
x2 = 0.6	44.1	47.5	51.6	54.6	57.9	61.1	63.8	67.1	70.5	73.9
x2 = 0.7	47.6	50.5	54.4	57.4	60.6	64	66.9	70.1	73.3	76.3
x2 = 0.8	49.3	52.8	56.5	59.7	62.9	66.1	68.9	72	75.2	78.1
x2 = 0.9	51	54.5	58	61.3	64.7	67.9	71.1	74	76.8	79.6

CC(C)C(=O)Nc1ccc([N+](=O)[O-])c(C(F)(F)F)c1 + CC(C)O + O
solubility (g/100 g solution)
Conditions	278.15 K	283.15 K	288.15 K	293.15 K	298.15 K	303.15 K	308.15 K	313.15 K	318.15 K	323.15 K
x2 = 0.03225	0.00411	0.00535	0.00694	0.00908	0.0116	0.0149	0.0187	0.0236	0.0297	0.0366
x2 = 0.06974	0.0295	0.0376	0.0488	0.0614	0.0768	0.0971	0.121	0.15	0.185	0.226
x2 = 0.1139	0.145	0.182	0.228	0.279	0.342	0.415	0.505	0.598	0.707	0.853
x2 = 0.1666	0.533	0.638	0.775	0.929	1.12	1.32	1.54	1.82	2.11	2.46
x2 = 0.2307	1.53	1.83	2.16	2.51	2.97	3.45	3.99	4.54	5.22	5.9
x2 = 0.3103	3.62	4.25	5	5.84	6.78	7.81	9.03	10.4	11.7	13.3
x2 = 0.4117	6.94	8.23	9.52	11.1	12.8	14.6	16.6	18.9	21.3	23.8
x2 = 0.5454	11.6	13.6	15.6	17.6	20.1	22.3	25	28.1	30.8	33.6
x2 = 0.7297	16.9	19.1	21.6	24.2	27.3	30.4	33	36.1	39.4	42.8
